# Data as given in US11008295B2, “Compounds having antiinfective, antitumoral and antifungal activity” (priority 2017, dated 2021).
# Legend:
# A. fumigatus = settings: clinical strain; cited from earlier work
# C. parapsilopsis = settings: C. parapsilosis, clinical strain; cited from earlier work
# A. flavus = settings: clinical strain; cited from earlier work
# C. guilliermondii = settings: C. guillermondii, clinical strain; cited from earlier work
# C. glabrata = settings: clinical strain; cited from earlier work
# C. Krusei = settings: clinical strain; cited from earlier work
# A. niger = settings: clinical strain; cited from earlier work
# C. tropicalis = settings: clinical strain; cited from earlier work
# C. albicans = settings: clinical strain; cited from earlier work
# A. terreus = settings: clinical strain; cited from earlier work
# C. lusitaniae = settings: clinical strain; cited from earlier work
# M. abscessus = assay: Kirby-Bauer disk diffusion susceptibility test; format: cell-based, Mycobacterium abscessus; settings: M. abscessus strain 690, isolation year 2012
# Description: (§1) Bacterial strains, from clinical origin, were supplied by the National Center for Microbiology, Institute of Health Carlos III (Majadahonda, Madrid). They are detailed in Table I.
# (§2) Bacterial cells suspension in sterile saline was prepared from a culture of 24-72 h, depending on bacterial species, in Mueller-Hinton Agar with 5% sheep blood. Each suspension was adjusted to a fixed size inoculum of 1-5×10^8 CFU/ml with a spectrophotometer (Ferraro, M J National Committee for Clinical Laboratory Standards. 2000).
# (§3) Kirby-Bauer disk diffusion susceptibility test protocol was utilized to determine the sensitivity or resistance of pathogenic bacteria against the compounds and others antibiotics. The absence of growth around the disks is an indirect measure of the ability of this compound to inhibit an organism (Kirby, W. et al., Antibiotics Annu. 1956-1957:892). After 18 to 72 hours of incubation at […], with or without CO2, under aerobic or anaerobic conditions, depending on the bacterial species, halo of growth inhibition were obtained and evaluated.
# (§4) Interpretation of susceptibility and resistance was based on the presence or absence of a zone of inhibition surrounding the disk. Kirby-Bauer disk diffusion susceptibility test is a common method which uses antibiotic-impregnated wafers to test whether bacteria are affected by antibiotics. The size of the zone of inhibition depends on how effective the antibiotic is at stopping the growth of the bacterium. A stronger antibiotic will create a larger zone, because a lower concentration of the antibiotic is enough to stop growth.
# T. pulmonis = assay: Kirby-Bauer disk diffusion susceptibility test; format: cell-based, Tsukamurella pulmonis
# Description: as §1, §2, §3, §4
# M. fortuitum = assay: Kirby-Bauer disk diffusion susceptibility test; format: cell-based; settings: M. fortuitum strain 1080, isolation year 2011
# Description: as §1, §2, §3, §4
# M. chelonae = assay: Kirby-Bauer disk diffusion susceptibility test; format: cell-based; settings: M. chelonae strain 870, isolation year 2011
# Description: as §1, §2, §3, §4
# N. cyriacigeorgica = assay: Kirby-Bauer disk diffusion susceptibility test; format: cell-based
# Description: as §1, §2, §3, §4
# A. baumannii = assay: Kirby-Bauer disk diffusion susceptibility test; format: cell-based
# Description: as §1, §2, §3, §4
# E. coli = assay: Kirby-Bauer disk diffusion susceptibility test; format: cell-based
# Description: as §1, §2, §3, §4
# N. carnea = assay: Kirby-Bauer disk diffusion susceptibility test; format: cell-based, Nocardia carnea
# Description: as §1, §2, §3, §4
# P. aeruginosa = assay: Kirby-Bauer disk diffusion susceptibility test; format: cell-based; settings: P. aeruginosa strain 96, isolation year 2014
# Description: as §1, §2, §3, §4
# E. faecium = assay: Kirby-Bauer disk diffusion susceptibility test; format: cell-based
# Description: as §1, §2, §3, §4
# E. faecalis = assay: Kirby-Bauer disk diffusion susceptibility test; format: cell-based
# Description: as §1, §2, §3, §4
# B. cereus = assay: Kirby-Bauer disk diffusion susceptibility test; format: cell-based, Bacillus cereus
# Description: as §1, §2, §3, §4
# [1] = T. pulmonis strain 40, isolation year 2015
# [2] = T. pulmonis strain 1991, isolation year 2009
# [3] = N cyriacigeorgica strain 199, isolation year 2005
# [4] = N. cyriacigeorgica strain 30, isolation year 2005
# [5] = E. coli strain 29, isolation year 2012
# [6] = E. coli strain 305, isolation year 2008
# [7] = N. carnea strain 40, isolation year 2011
# [8] = N. carnea strain 769, isolation year 2009
# Also: key: I = intermediate activity; S = susceptibility; R = Resistance.
Molecule,Characteristics of the strains: susceptibility to the antifungal (A. fumigatus),Characteristics of the strains: susceptibility to the antifungal (C. parapsilopsis),Characteristics of the strains: susceptibility to the antifungal (A. flavus),Characteristics of the strains: susceptibility to the antifungal (C. guilliermondii),Characteristics of the strains: susceptibility to the antifungal (C. glabrata),Characteristics of the strains: susceptibility to the antifungal (C. Krusei),Characteristics of the strains: susceptibility to the antifungal (A. niger),Characteristics of the strains: susceptibility to the antifungal (C. tropicalis),Characteristics of the strains: susceptibility to the antifungal (C. albicans),Characteristics of the strains: susceptibility to the antifungal (A. terreus),Characteristics of the strains: susceptibility to the antifungal (C. lusitaniae),Sensitivity or resistance of the strain to the antibiotic (M. abscessus),Sensitivity or resistance of the strain to the antibiotic (M. fortuitum),Sensitivity or resistance of the strain to the antibiotic (M. chelonae),other results
C[C@@H]1[C@H](O)[C@@H](C)/C=C/C=C/C=C/C=C/C=C/C=C/C=C/[C@H](O[C@@H]2O[C@H](C)[C@@H](O)[C@H](N)[C@@H]2O)C[C@@H]2O[C@](O)(C[C@@H](O)C[C@@H](O)[C@H](O)CC[C@@H](O)C[C@@H](O)CC(=O)O[C@H]1C)C[C@H](O)[C@H]2C(=O)O [Amphotericin B],S,S,I,R,S,I,S,S,I,I,I,,,,
Clc1ccccc1C(c1ccccc1)(c1ccccc1)n1ccnc1 [Clotrimazole],S,S,S,R,S,S,S,S,S,S,S,,,,
OC(Cn1cncn1)(Cn1cncn1)c1ccc(F)cc1F [Fluconazole],R,S,R,R,S,S,R,S,S,R,S,,,,
"C[C@@H](O)[C@H]1C(=O)N2C(C(=O)O)=C(SCCN=CN)C[C@H]12 [IMP, Imipenem]",,,,,,,,,,,,R,R,R,"Sensitivity or resistance of the strain to the antibiotic (T. pulmonis; [1]): S; Sensitivity or resistance of the strain to the antibiotic (T. pulmonis; [2]): S; Sensitivity or resistance of the strain to the antibiotic (N. cyriacigeorgica; [3]): R; Sensitivity or resistance of the strain to the antibiotic (N. cyriacigeorgica; [4]): S; Sensitivity or resistance of the strain to the antibiotic (A. baumannii; A. baumannii strain 300, isolation year 2001): R; Sensitivity or resistance of the strain to the antibiotic (A. baumannii; A. baumannii strain 1301, isolation year 2009): S; Sensitivity or resistance of the strain to the antibiotic (E. coli; [5]): S; Sensitivity or resistance of the strain to the antibiotic (E. coli; [6]): S; Sensitivity or resistance of the strain to the antibiotic (N. carnea; [7]): R; Sensitivity or resistance of the strain to the antibiotic (N. carnea; [8]): S"
CC(=O)N1CCN(c2ccc(OCC3COC(Cn4ccnc4)(c4ccc(Cl)cc4Cl)O3)cc2)CC1 (stereo not drawn) [Ketoconazole],S,S,S,R,S,S,S,S,S,S,S,,,,
"CC(=O)NC[C@H]1CN(c2ccc(N3CCOCC3)c(F)c2)C(=O)O1 [LIN, Linezolid]",,,,,,,,,,,,S,R,R,Sensitivity or resistance of the strain to the antibiotic (T. pulmonis; [1]): R; Sensitivity or resistance of the strain to the antibiotic (T. pulmonis; [2]): S; Sensitivity or resistance of the strain to the antibiotic (P. aeruginosa): S; Sensitivity or resistance of the strain to the antibiotic (N. cyriacigeorgica; [3]): S; Sensitivity or resistance of the strain to the antibiotic (N. cyriacigeorgica; [4]): S; Sensitivity or resistance of the strain to the antibiotic (N. carnea; [7]): S; Sensitivity or resistance of the strain to the antibiotic (N. carnea; [8]): S
Penicillin,,,,,,,,,,,,R,R,R,"Sensitivity or resistance of the strain to the antibiotic (E. faecium; E. faecium strain 26, isolation year 2012): R; Sensitivity or resistance of the strain to the antibiotic (E. faecium; E. faecium strain 209, isolation year 2015): R; Sensitivity or resistance of the strain to the antibiotic (E. faecalis; E. faecalis strain 52, isolation year 2006): R; Sensitivity or resistance of the strain to the antibiotic (E. faecalis; E. faecalis strain 1052, isolation year 2008): R; Sensitivity or resistance of the strain to the antibiotic (E. coli; [5]): R; Sensitivity or resistance of the strain to the antibiotic (E. coli; [6]): R; Sensitivity or resistance of the strain to the antibiotic (B. cereus; B. cereus strain 25, isolation year 2014): S; Sensitivity or resistance of the strain to the antibiotic (B. cereus; B. cereus strain 182, isolation year 2013): S"
